Measured values as given in PubChem BioAssay (NCI).
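Dose response: 5 concentrations. Exposure: 48 h. Format: 96-well plates. Endpoint: linear interpolation; highest concentration if not reached. GI50 = concentration required for 50% inhibition of growth. TGI denotes the concentration required for complete inhibition of growth.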

What was measured:
Assay in all cases: DTP human tumour cell line panel, 48 h
[1] = test system: SW-620 colon
[2] = test system: EKVX NSCLC
[3] = test system: SK-MEL-28 melanoma
[4] = test system: HL-60(TB) leukemia
[5] = test system: SF-539 CNS
[6] = test system: NCI-H522 lung
[7] = test system: MCF7 breast
[8] = test system: HCT-15 colon
[9] = test system: UACC-257 melanoma
[10] = test system: HOP-62 NSCLC
[11] = test system: UACC-62 melanoma
[12] = test system: SK-OV-3 ovarian
[13] = test system: SF-268 CNS
[14] = test system: SR leukemia
[15] = test system: OVCAR-3 ovarian
[16] = test system: OVCAR-4 ovarian
[17] = test system: SNB-19 CNS
[18] = test system: PC-3 prostate
[19] = test system: KM12 colon
[20] = test system: ACHN renal
[21] = test system: A498 renal
[22] = test system: RXF 393 renal
[23] = test system: SN12C renal
[24] = test system: SK-MEL-5 melanoma
[25] = test system: NCI/ADR-RES ovarian
[26] = test system: MOLT-4 leukemia
[27] = test system: T-47D breast
[28] = test system: HCT-116 colon
[29] = test system: HT29 colon
[30] = test system: COLO 205 colon
[31] = test system: TK-10 renal
[32] = test system: SK-MEL-2 melanoma
[33] = test system: CAKI-1 renal
[34] = test system: 786-0 renal
[35] = test system: OVCAR-8 ovarian
[36] = test system: SNB-75 CNS
[37] = test system: U251 CNS
[38] = test system: IGROV1 ovarian
[39] = test system: CCRF-CEM leukemia
[40] = test system: OVCAR-5 ovarian
[41] = test system: RPMI-8226 leukemia
[42] = test system: NCI-H226 lung
[43] = test system: HS 578T breast
[44] = test system: LOX IMVI melanoma
[45] = test system: SF-295 CNS
[46] = test system: NCI-H23 lung
[47] = test system: BT-549 breast
[48] = test system: UO-31 renal
[49] = test system: MALME-3M melanoma
[50] = test system: K-562 leukemia
[51] = test system: HCC-2998 colon
[52] = test system: NCI-H460 lung
[53] = test system: M14 melanoma
[54] = test system: HOP-92 NSCLC
[55] = test system: MDA-MB-468 breast
[56] = test system: A549 NSCLC
[57] = test system: MDA-MB-231 breast
[58] = test system: MDA-MB-435
[59] = test system: DU-145 prostate

Fc1ccc(/C=C/c2nc3ccccc3n3c(-c4ccc(Cl)cc4)nnc23)cc1
GI50 [1]: 11.3 µM
TGI [1]: 25.7 µM
GI50 [2]: 58.3 µM
TGI [2]: > 100 µM
GI50 [3]: 54.4 µM
TGI [3]: > 100 µM
GI50 [4]: 27.4 µM
TGI [4]: > 100 µM
GI50 [5]: 16.8 µM
TGI [5]: 40.6 µM
GI50 [6]: 1.47 µM
TGI [6]: 3.01 µM
GI50 [7]: 1.78 µM
TGI [7]: 34.6 µM
GI50 [8]: 9.36 µM
TGI [8]: 25.4 µM
GI50 [9]: 38.6 µM
TGI [9]: > 100 µM
GI50 [10]: 47.7 µM
TGI [10]: > 100 µM
GI50 [11]: 21 µM
TGI [11]: > 100 µM
GI50 [12]: 62.6 µM
TGI [12]: > 100 µM
GI50 [13]: 67.7 µM
TGI [13]: > 100 µM
GI50 [14]: 2.44 µM
TGI [14]: 19.7 µM
GI50 [15]: 23 µM
TGI [15]: > 100 µM
GI50 [16]: 20.1 µM
TGI [16]: 95.6 µM
GI50 [17]: 51 µM
TGI [17]: > 100 µM
GI50 [18]: 30.4 µM
TGI [18]: > 100 µM
GI50 [19]: > 100 µM
TGI [19]: > 100 µM
GI50 [20]: 13.6 µM
TGI [20]: 46.2 µM
GI50 [21]: > 100 µM
TGI [21]: > 100 µM
GI50 [22]: 10.8 µM
TGI [22]: 72.5 µM
GI50 [23]: 13.5 µM
TGI [23]: 34.3 µM
GI50 [24]: 29.1 µM
TGI [24]: > 100 µM
GI50 [25]: 30.4 µM
TGI [25]: > 100 µM
GI50 [26]: 3.74 µM
TGI [26]: 34.9 µM
GI50 [27]: 14.3 µM
TGI [27]: > 100 µM
GI50 [28]: 12.5 µM
TGI [28]: 41.2 µM
GI50 [29]: 11.8 µM
TGI [29]: 33 µM
GI50 [30]: 18.9 µM
TGI [30]: 71.4 µM
GI50 [31]: 36.9 µM
TGI [31]: > 100 µM
GI50 [32]: 40.1 µM
TGI [32]: > 100 µM
GI50 [33]: 44.2 µM
TGI [33]: > 100 µM
GI50 [34]: 31.5 µM
TGI [34]: > 100 µM
GI50 [35]: 16.2 µM
TGI [35]: 80.4 µM
GI50 [36]: 4.47 µM
TGI [36]: > 100 µM
GI50 [37]: 18.4 µM
TGI [37]: 88.6 µM
GI50 [38]: 13.8 µM
TGI [38]: 51.4 µM
GI50 [39]: 2.82 µM
TGI [39]: 8.8 µM
GI50 [40]: 23.3 µM
TGI [40]: > 100 µM
GI50 [41]: 16.7 µM
TGI [41]: > 100 µM
GI50 [42]: 31.5 µM
TGI [42]: > 100 µM
GI50 [43]: 29.3 µM
TGI [43]: > 100 µM
GI50 [44]: 1.61 µM
TGI [44]: 3.41 µM
GI50 [45]: > 100 µM
TGI [45]: > 100 µM
GI50 [46]: 17.1 µM
TGI [46]: 53 µM
GI50 [47]: 16 µM
TGI [47]: 72.6 µM
GI50 [48]: 14.1 µM
TGI [48]: > 100 µM
GI50 [49]: 11.3 µM
TGI [49]: 24.9 µM
GI50 [50]: 6.46 µM
TGI [50]: > 100 µM
GI50 [51]: 37.9 µM
TGI [51]: > 100 µM
GI50 [52]: 25.3 µM
TGI [52]: > 100 µM
GI50 [53]: 14.2 µM
TGI [53]: 32.9 µM
GI50 [54]: 24.4 µM
TGI [54]: > 100 µM
GI50 [55]: 3.78 µM
TGI [55]: 20.2 µM
GI50 [56]: 18.8 µM
TGI [56]: > 100 µM
GI50 [57]: 20 µM
TGI [57]: 88.4 µM
GI50 [58]: 26.5 µM
TGI [58]: > 100 µM
GI50 [59]: 16.6 µM
TGI [59]: 53.1 µM
